Measured values published in patent publication US20040266784A1, “Calcium channel inhibitors comprising benzhydril spaced from piperazine” (priority 1998, published 2004).
Like-named read-outs stand apart in the source and are kept apart here.

Experiments:
[1] = biological target: T1, rat N-type channels (α1B+α2δ+β1b subunits) (Rattus norvegicus, UniProt Q02294); assay: Whole cell patch clamp, N-type calcium channel block in HEK 293 cells; assay type: cell-based; conditions: Tested at 0.1 Hz, 5 mM Ba2+
T1 construct: expressed in transfected cells

[2] = biological target: T2, P/Q-type channels (α1A+α2δ+β1b cDNA subunits) (Rattus norvegicus, UniProt P54282); assay: Whole cell patch clamp, P/Q-type calcium channel block in HEK 293 cells; assay type: cell-based; conditions: Tested at 0.1 Hz, 5 mM Ba2+
T2 construct: expressed in transfected cells
Experimental: (§1) Antagonist activity was measured using whole cell patch recordings on human embryonic kidney cells either stably or transiently expressing rat N-type channels (α1B+[…]+β1b subunits) with 5 mM barium as a charge carrier. Alternatively, cells either stably or transiently expressing rat L-type channels (α1C+α2δ+β1b cDNA subunits) and P/Q-type channels (α1A+α2δ+β1b cDNA subunits)
(§2) After an incubation period of from 24 to 72 hrs the culture medium was removed and replaced with external recording solution (see below). Whole cell patch clamp experiments were performed using an Axopatch 200B amplifier (Axon Instruments, Burlingame, Calif.) linked to an IBM compatible personal computer equipped with pCLAMP software. […] Current data shown were elicited by a train of 100 ms test pulses at 0.066 Hz from −100 mV and/or −80 mV to various potentials (min. −20 mV, max. +30 mV). Drugs were perfused directly into the vicinity of the cells using a microperfusion system.
(§3) Normalized dose-response curves were fit (Sigmaplot 4.0, SPSS Inc., Chicago, Ill.) by the Hill equation to determine IC50 values. […]
(§4) Whole cell patch clamp experiments were performed using an Axopatch 200B amplifier (Axon Instruments, Burlingame, Calif.) linked to a personal computer equipped with pCLAMP software. […] Data were analyzed using Clampfit (Axon Instruments) and SigmaPlot 4.0 (Jandel Scientific).

[3] = biological target: T1, rat N-type channels (α1B+α2δ+β1b subunits); assay: Whole cell patch clamp, N-type calcium channel block in HEK 293 cells; assay type: cell-based; conditions: for specificity for N-type channels as compared to L and P/Q-type: FIGS. 2, 3 and 4
Experimental: as §1
HEK 293 cells were transfected by a standard calcium-phosphate-DNA coprecipitation method using the rat α1B+β1b+α2δ N-type calcium channel subunits in a vertebrate expression vector (for example, see Current Protocols in Molecular Biology).
as §2
Normalized dose-response curves were fit (Sigmaplot 4.0, SPSS Inc., Chicago, Ill.) by the Hill equation to determine IC50 values. Steady-state inactivation curves were plotted as the normalized test pulse amplitude following 5 s inactivating prepulses at +10 mV increments.
Alternatively, N-type calcium channels (α1B+α2δ+β1b cDNA subunits), L-type channels (α1C+α2δ+β1b cDNA subunits) and P/Q-type channels (α1A+α2δ+β1b cDNA subunits) were transiently expressed in HEK 293 cells. Briefly, cells were cultured in Dulbecco's modified eagle medium (DMEM) supplemented with 10% fetal bovine serum, 200 U/ml penicillin and 0.2 mg/ml streptomycin at 37° C. with 5% CO2. […] At 12 hours the medium was replaced and the cells transiently transfected using a standard calcium phosphate protocol and the appropriate calcium channel cDNAs. Fresh DMEM was supplied and the cells transferred to 28° C./5% CO2.
Whole cell patch clamp experiments were performed using an Axopatch 200B amplifier (Axon Instruments, Burlingame, Calif.) linked to a personal computer equipped with pCLAMP software. […] Currents were typically elicited from a holding potential of −80 mV to +10 mV using Clampex software (Axon Instruments). […] The compounds were then applied during the low frequency pulse trains for two to three minutes to assess tonic block, and subsequently the pulse frequency was increased to 0.2 Hz to assess frequency dependent block. Data were analyzed using Clampfit (Axon Instruments) and SigmaPlot 4.0 (Jandel Scientific).

[4] = biological target: T3, rat L-type channels (α1C+α2δ+β1b cDNA subunits) (Rattus norvegicus, UniProt P22002); assay: Whole cell patch clamp, L-type calcium channel block in HEK 293 cells; assay type: cell-based; conditions: Tested at 0.1 Hz, 5 mM Ba2+
T3 construct: expressed in transfected cells
Experimental: as §1, §2, §3, §4

[5] = biological target: T4, human α1G subunits (T-type channels) (Homo sapiens, UniProt O43497); assay: Block of α1G T-type channels, patch clamp in HEK cell lines; assay type: cell-based
T4 construct: expressed in transfected cells
Experimental: Standard patch-clamp techniques were employed to identify blockers of T-type currents. Briefly, previously described HEK cell lines stably expressing human α1G subunits were used for all the recordings (passage #: 4-20, 37° C., 5% CO2). To obtain T-type currents, plastic dishes containing semi-confluent cells were positioned on the stage of a ZEISS AXIOVERT S100 microscope after replacing the culture medium with external solution (see below). Whole-cell patches were obtained using pipettes (borosilicate glass with filament, O.D.: 1.5 mm, I.D.: 0.86 mm, 10 cm length), fabricated on a SUTTER P-97 puller with resistance values of ˜5 MΩ (see below for internal medium).
Test compounds were dissolved in external solution, 0.1-0.01% DMSO. After ˜10 min rest, they were applied by gravity close to the cell using a WPI microfil tubing. The “non-inactivating” pre-pulse was used to examine the resting block of a compound. The “inactivating” protocol was employed to study voltage-dependent block. However, the initial data were obtained using the non-inactivating protocol.

rat formalin model = assay: Formalin-induced pain model; assay type: in vivo; conditions: 30 mg/kg IP, saline control=100%
Experimental: The effects of intrathecally delivered compounds of the invention on the rat formalin model were measured. The compounds were reconstituted to stock solutions of approximately 10 mg/ml in propylene glycol.
The following study groups were used, with test compound, vehicle control (propylene glycol) and saline delivered intraperitoneally (IP):
Prior to initiation of drug delivery baseline behavioral and testing data were taken.
On the morning of testing, a small metal band (0.5 g) was loosely placed around the right hind paw. The rat was placed in a cylindrical Plexiglas chamber for adaptation a minimum of 30 minutes. Test compound or vehicle control was administered 10 minutes prior to formalin injection (50 μl of 5% formalin) into the dorsal surface of the right hindpaw of the rat. The animal was then placed into the chamber of the automated formalin apparatus where movement of the formalin injected paw was monitored and the number of paw flinches tallied by minute over the next 60 minutes.

[6] = 0.067 Hz, read-out: IC50 for N-type Calcium Channel Block (0.067 Hz)
[7] = 0.2 Hz, read-out: IC50 for N-type Calcium Channel Block (0.2 Hz)
[8] = 80 mV, read-out: Block of α1G T-type Channels IC50, 80 mV
[9] = 100 mV, non-inactivating protocol, read-out: Block of α1G T-type Channels IC50, 100 mV

T4 sequence (O43497 whole entry): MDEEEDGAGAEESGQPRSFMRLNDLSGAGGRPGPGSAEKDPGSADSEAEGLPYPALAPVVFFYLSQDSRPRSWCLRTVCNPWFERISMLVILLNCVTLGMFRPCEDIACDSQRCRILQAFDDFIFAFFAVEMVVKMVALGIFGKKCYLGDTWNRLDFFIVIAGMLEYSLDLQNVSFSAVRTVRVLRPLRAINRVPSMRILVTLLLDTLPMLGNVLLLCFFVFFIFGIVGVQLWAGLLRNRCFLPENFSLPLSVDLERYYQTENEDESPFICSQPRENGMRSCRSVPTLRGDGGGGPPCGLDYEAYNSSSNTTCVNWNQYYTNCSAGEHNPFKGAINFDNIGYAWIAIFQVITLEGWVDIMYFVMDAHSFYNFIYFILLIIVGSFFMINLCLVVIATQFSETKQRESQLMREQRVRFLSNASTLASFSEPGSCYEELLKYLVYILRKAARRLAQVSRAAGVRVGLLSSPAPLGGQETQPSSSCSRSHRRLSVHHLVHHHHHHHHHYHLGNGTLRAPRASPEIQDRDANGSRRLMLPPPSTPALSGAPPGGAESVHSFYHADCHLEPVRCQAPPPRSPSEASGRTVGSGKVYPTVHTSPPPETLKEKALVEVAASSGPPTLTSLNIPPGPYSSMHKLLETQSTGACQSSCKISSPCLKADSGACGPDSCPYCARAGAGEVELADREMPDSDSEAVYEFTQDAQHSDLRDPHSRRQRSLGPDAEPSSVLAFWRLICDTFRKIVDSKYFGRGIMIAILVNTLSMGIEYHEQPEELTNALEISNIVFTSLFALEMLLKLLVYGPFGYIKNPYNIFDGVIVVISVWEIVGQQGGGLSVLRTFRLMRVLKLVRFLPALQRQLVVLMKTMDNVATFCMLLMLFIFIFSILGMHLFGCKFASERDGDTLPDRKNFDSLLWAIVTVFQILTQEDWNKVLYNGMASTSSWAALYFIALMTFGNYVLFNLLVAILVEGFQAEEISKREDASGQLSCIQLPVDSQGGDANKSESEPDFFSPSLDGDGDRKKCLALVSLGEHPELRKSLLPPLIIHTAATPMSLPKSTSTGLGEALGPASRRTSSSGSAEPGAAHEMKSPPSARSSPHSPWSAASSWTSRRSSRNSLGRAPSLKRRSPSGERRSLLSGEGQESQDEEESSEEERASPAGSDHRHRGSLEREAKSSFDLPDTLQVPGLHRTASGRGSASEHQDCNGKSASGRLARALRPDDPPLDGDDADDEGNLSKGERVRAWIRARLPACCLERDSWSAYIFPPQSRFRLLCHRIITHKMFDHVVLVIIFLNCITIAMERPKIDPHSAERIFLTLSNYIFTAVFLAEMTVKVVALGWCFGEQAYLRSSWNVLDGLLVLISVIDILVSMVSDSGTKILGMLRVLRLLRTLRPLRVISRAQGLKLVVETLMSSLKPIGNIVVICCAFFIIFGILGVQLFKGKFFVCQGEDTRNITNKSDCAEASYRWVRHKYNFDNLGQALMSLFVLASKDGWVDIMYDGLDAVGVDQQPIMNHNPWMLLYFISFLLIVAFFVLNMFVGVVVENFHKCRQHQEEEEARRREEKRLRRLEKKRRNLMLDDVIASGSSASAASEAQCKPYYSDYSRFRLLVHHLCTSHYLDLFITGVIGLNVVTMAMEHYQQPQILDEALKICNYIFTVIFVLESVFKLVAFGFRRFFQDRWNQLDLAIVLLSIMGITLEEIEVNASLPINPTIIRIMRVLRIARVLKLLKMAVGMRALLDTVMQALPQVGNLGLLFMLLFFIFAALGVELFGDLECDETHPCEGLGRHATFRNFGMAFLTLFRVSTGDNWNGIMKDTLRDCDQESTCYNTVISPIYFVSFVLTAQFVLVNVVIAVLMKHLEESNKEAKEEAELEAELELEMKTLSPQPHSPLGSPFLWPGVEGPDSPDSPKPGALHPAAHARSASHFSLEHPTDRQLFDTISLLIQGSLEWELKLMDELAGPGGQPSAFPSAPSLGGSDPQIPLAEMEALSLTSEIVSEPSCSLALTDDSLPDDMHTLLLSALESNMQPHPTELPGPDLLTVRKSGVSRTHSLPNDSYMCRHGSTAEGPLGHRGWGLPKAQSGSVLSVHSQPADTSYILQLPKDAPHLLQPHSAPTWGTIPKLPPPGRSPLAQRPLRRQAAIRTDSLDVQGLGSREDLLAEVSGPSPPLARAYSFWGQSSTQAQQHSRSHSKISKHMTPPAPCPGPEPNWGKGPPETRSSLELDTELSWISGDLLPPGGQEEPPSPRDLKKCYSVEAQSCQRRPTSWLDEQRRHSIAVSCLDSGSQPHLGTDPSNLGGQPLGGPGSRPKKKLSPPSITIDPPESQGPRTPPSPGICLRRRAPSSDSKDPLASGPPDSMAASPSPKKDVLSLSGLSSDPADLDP

IC50 [1] [nM]	IC50 [2] [nM]	IC50 [3, 6] [nM]	IC50 [3, 7] [nM]	specificity for N-type channels as compared to L and P/Q-type [3]	IC50 [4] [nM]	IC50 [5, 8] [nM]	IC50 [5, 9] [nM]	Structure (SMILES)	Maximum Possible Effect±SEM, Phase I (rat formalin model; Phase I) [%]	Maximum Possible Effect±SEM, Phase II (rat formalin model; Phase II) [%]	Maximum Possible Effect±SEM, Phase IIA (rat formalin model; Phase IIA) [%]
		511	295			149	370	Cc1ccc(C(=O)NCC(=O)N2CCN(CCCCCC(c3ccc(F)cc3)c3ccc(F)cc3)CC2)cc1 [Compound P84]			
61	1660	60	13	selectively block N-type channels	144000	270	579	COc1c(C(C)(C)C)cc(C(=O)N2CCN(C(=O)CCCCC(c3ccc(F)cc3)c3ccc(F)cc3)C[C@@H]2C)cc1C(C)(C)C [Compound P104]	79 ± 9	61 ± 9	50 ± 12

Second part, the molecule before the results:

Structure (SMILES)	IC50 [1] [nM]	IC50 [2] [nM]	IC50 [3, 6] [nM]	IC50 [3, 7] [nM]	specificity for N-type channels as compared to L and P/Q-type [3]	IC50 [4] [nM]	IC50 [5, 8] [nM]	IC50 [5, 9] [nM]	Maximum Possible Effect±SEM, Phase I (rat formalin model; Phase I) [%]	Maximum Possible Effect±SEM, Phase II (rat formalin model; Phase II) [%]	Maximum Possible Effect±SEM, Phase IIA (rat formalin model; Phase IIA) [%]
CCOC(=O)C1CN(Cc2cc(OC)c(OC)c(OC)c2)CCN1CCCCCC(c1ccc(F)cc1)c1ccc(F)cc1 (stereo not shown) [Compound P36, 1-[6,6-bis-(4-fluoro-phenyl)-hexyl]-4-(3,4,5,-trimethoxy-benzyl)-piperazine-2-carboxylic acid ethyl ester]	136	920	240	130	selectively block N-type channels	> 100000	47	202			
COc1c(C(C)(C)C)cc(CN2CCN(CCCCCC(c3ccc(F)cc3)c3ccc(F)cc3)C(=O)C2)cc1C(C)(C)C [Compound P56]			78	59			92	95			
O=C(NCC(=O)N1CCN(CCCCCC(c2ccc(F)cc2)c2ccc(F)cc2)CC1)c1ccc(Cl)cc1 [Compound P83]			386	192			59	173			
